# Reference: US20240148765A1, “COMPOSITIONS AND METHODS FOR TREATING AND/OR PREVENTING THERAPY-RELATED CARDIOMYOPATHY ASSOCIATED WITH NEUTROPHIL INFILTRATION” (University of Virginia Patent Foundation, priority 2021, published 2024)
# Read-outs that look alike come from different tables or passages of the source.
# Columns and labels:
# [1] = system: myeloid-specific Trp53-deficient mice (Lyz2^Cre/+Trp53^fl/fl); settings: mouse, in vivo
# Source text: (§3) Mice. Wild-type mice (Cd45.2), Trp53-insufficient mice, Trp53^R27OH mice, Trp53-floxed mice, Lyz2-Cre mice, Pep Boy mice (Cd45.1), and Ccr2^gfp/gfp mice were obtained from The Jackson Laboratory (stock 000664, 002103, 008182, 008462, 004781, 002014, and 027619, respectively). All strains are C57BL/6J background. Mice with myeloid-restricted Trp53 ablation were generated by crossing Trp53-floxed mice (Trp53^fl/fl) with Lyz2-Cre mice. Male mice were used for both in vivo and in vitro experiments unless otherwise noted. Mice were housed in a specific pathogen-free animal facility and given food and water ad libitum on 12-hour dark/light schedule.
# (§4) Doxorubicin administration. Pattern 1: adoptive BMT mice were injected with doxorubicin 6 weeks after BMT using a model of therapy-related clonal hematopoiesis (Wang et al., 2020) involving 3 rounds of 2 mg/kg i.p. injection, with 3 weeks between each round. Pattern 2: competitive BMT mice, Trp53-Myelo-KO mice, Ccr2^gfp/gfp mice, and mice in neutrophil depletion and neutrophil recruitment inhibition studies were injected with doxorubicin with a dose of 15 μg/g (body weight) split into 3 injections at indicated time points. […]
# (§5) Quantitative RT-PCR. […] Gene expression was calculated relative to 36b4 and normalized to controls. Data were calculated by AACt approach.
# [2] = system: myeloid-specific Trp53-deficient mice (Lyz2^Cre/+Trp53^fl/fl); assay: Dox-induced cardiotoxicity in myeloid-specific Trp53-deficient mice; settings: Lyz2^Cre/+Trp53^fl/fl vs control mice treated with Dox
# Source text: as §3, §4, §5
# [3] = system: Trp53 mutant hematopoietic cells; assay: Adoptive bone marrow transplantation model of Trp53 clonal hematopoiesis with cycles of Dox; flow cytometry chimerism and blood counts; format: in vivo, mice
# Method: Non-myeloablative bone marrow transplantation.
# (§1) Doxorubicin administration.
# (§2) Hematopoietic cell parameter measurements. […] Hematopoietic parameters were analyzed using an Element HT5 Veterinary Hematology Analyzer (Heska, Loveland, Colorado, United States of America).
# Ccr2-deficient mice = assay: Dox-induced cardiac toxicity in Ccr2-deficient mice; format: in vivo; settings: Ccr2-deficient relative to wild-type mice, 15 μg/g split into 3 injections, 4 weeks
# Source text: Mice. […] All strains are C57BL/6J background.
# as §1
# C57BL6/J wild type mice = assay: Single bolus of Dox in wild-type mice; cardiac parameters, blood counts, cardiac-resident leukocytes; format: in vivo
# Method: as §1, §2
# [4] = system: lethally irradiated mice transplanted with Trp53-heterozygous cells; assay: Dox cardiotoxicity in myeloablative (competitive) BMT mice, 30% Trp53^+/− or wild-type cells
# Method: as §1
# Quantitative RT-PCR. Mouse total RNA was isolated using QIAzol reagent (Catalog No. 79306; Qiagen, Inc., Germantown, Maryland, United States of America), and was purified on the QIAcube. 1 μg RNA was reverse transcribed with a High-capacity cDNA Reverse Transcription Kit (Catalog No. 4368814; Thermo Fisher Scientific). qRT-PCR was performed with POWERUP™ SYBR™ Green reagent (Catalog No. 4367659; Thermo Fisher Scientific) in a QUANTSTUDIO™ 6 Flex PCR system (Thermo Fisher Scientific). Gene expression was calculated relative to 36b4 and normalized to controls. Data were calculated by AACt approach.
# [5] = system: mice transplanted with wild-type or Trp53 mutant cells
# Method: Doxorubicin administration. Pattern 1: adoptive BMT mice were injected with doxorubicin 6 weeks after BMT using a model of therapy-related clonal hematopoiesis (Wang et al., 2020) involving 3 rounds of 2 mg/kg i.p. injection, with 3 weeks between each round. Pattern 2: competitive BMT mice, Trp53-Myelo-KO mice, Ccr2^gfp/gfp mice, and mice in neutrophil depletion and neutrophil recruitment inhibition studies were injected with doxorubicin with a dose of 15 μg/g (body weight) split into 3 injections at indicated time points. Pattern 3: wild-type mice were injected with a single dose of doxorubicin (15 μg/g) at indicated time points.
# Echocardiography. Cardiac function was assessed before and after Dox administration at indicated time points using a Vevo 2100 ultrasound system equipped with MS400D probe (FUJIFILM VisualSonics Inc., Toronto, Ontario, Canada). Echocardiography was performed as described in Wang et al., 2019. Briefly, mice were anesthetized with isoflurane at a concentration of 5% (induction phase) and 1-1.5% (maintenance phase). Each animal was placed on the heating table in a supine position with the extremities taped to the table through four electrocardiography leads. Chest fur was removed with a chemical hair remover, and ultrasound gel was applied to the thorax surface to improve the visibility of the cardiac chambers. Left ventricular diameter at end-diastole (LVDd, mm), left ventricular diameter at end-systole (LVDs, mm), posterior wall thickness in diastole (PWTd, mm), and fractional shortening (FS, %) were measured from M-mode images obtained by short-axis view visualizing both mid papillary muscles. Measurements and analysis were performed by two individuals who were blinded to the identity of the experimental groups of mice using a Vevo Lab software (FUJIFILM VisualSonics Inc.).
# CXCR2 = biological target: T1, CXCR2 (Mus musculus, UniProt P35343); assay: CXCR2 inhibitor SB265610 in Dox-treated wild-type mice; format: in vivo; settings: 2 mg/kg/day i.p.
# T1 construct: from tissue; host or cells: whole animal: wild-type C57BL/6J mice (receptor on the animals' own neutrophils)
# T1 sequence (P35343 1-359): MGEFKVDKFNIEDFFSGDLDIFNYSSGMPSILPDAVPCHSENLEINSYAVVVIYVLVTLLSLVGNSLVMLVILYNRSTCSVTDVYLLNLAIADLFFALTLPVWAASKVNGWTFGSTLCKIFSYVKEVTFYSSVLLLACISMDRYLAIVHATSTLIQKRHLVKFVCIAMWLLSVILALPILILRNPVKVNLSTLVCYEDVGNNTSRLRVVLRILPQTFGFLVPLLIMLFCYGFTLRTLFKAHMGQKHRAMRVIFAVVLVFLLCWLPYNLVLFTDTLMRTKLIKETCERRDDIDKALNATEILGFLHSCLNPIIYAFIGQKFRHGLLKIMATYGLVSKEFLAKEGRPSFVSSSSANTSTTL
# Method: as §1
# SB265610 (CXCR2 inhibitor) administration. SB265610 (1-(2-Bromophenyl)-3-(4-cyano-1H-benzo[d] [1,2,3]triazol-7-yl)urea, N-(2-Bromophenyl)-N′-(7-cyano-1H-benzotriazol-4-yl)urea; Catalog No. SML0421; Sigma-Aldrich, St. Louis, Missouri, United States of America) was used to inhibit neutrophil infiltration into tissues. Mice were injected intraperitoneally with 2 mg/kg of SB265610, once a day, over a time course that starts 1 day before the start of doxorubicin administration until the end of the study. The solution of SB265610 was prepared in sterile dimethyl sulfoxide (DMSO) to a concentration of 10 mg/ml. The aliquoted mixture was stored at −20° C. and thawed before use. The solution was mixed with corn oil (Sigma Catalog No. C8267) to minimize the toxic effect of DMSO just before injection. Injections were performed using a sterile syringe and needle (29G). The expiration date of the mixture coincided with the expiration date of the SB265610.
# [6] = adoptive BMT mice, Dox in cycles vs saline
# [7] = single bolus of Dox 15 μg/g i.p., up to 14 days
# [8] = Trp53 heterozygous mutant vs wild-type bone marrow, 7 days after single Dox 15 μg/g
# [9] = adoptive BMT mice treated with Dox
# [10] = mice transplanted with wild-type cells, Dox cycles
# [11] = mice with Trp53^R27OH mutant blood cells vs wild-type cells, Dox regimen
smiles,measurement,setting,value
"COc1cccc2c1C(=O)c1c(O)c3c(c(O)c1C2=O)C[C@@](O)(C(=O)CO)C[C@@H]3O[C@H]1C[C@H](N)[C@H](O)[C@H](C)O1 [Dox, doxorubicin]",myocardial transcripts that encode inflammatory mediators,[1],upregulation
same,survival,[2],reduced survival
same,"proportions of donor-derived Trp53^+/− cells in bone marrow LSK, LT-HSC and GMP fractions","[3]; Dox vs saline control, at termination of the experiment",considerably higher
same,expansion of donor-derived Trp53^+/− cells in circulating cell populations,[3]; [6],further expansion
same,expansion of transplanted wild-type cells in circulating cell populations,[3]; [6],little or no effect
same,hemoglobin levels and absolute numbers of hematopoietic cell types,"[3]; after the fourth cycle of Dox, prolonged administration",altered some of these parameters
same,expansion of donor-derived Trp53^R27OH clones in circulating leukocytes and bone marrow HSPC fractions,"[3]; serial Dox administration, adoptive BMT",selective expansion
same,cardiac dysfunction after Dox,Ccr2-deficient mice,comparable
same,cardiac wall dimension and function,"C57BL6/J wild type mice; single bolus of Dox 15 μg/g i.p., 14 days",reductions
same,body weight,C57BL6/J wild type mice; [7],time-dependent loss
same,heart weight,C57BL6/J wild type mice; [7],time-dependent loss
same,peripheral blood monocytes,"C57BL6/J wild type mice; single bolus of Dox, 7-day timepoint",transient increase
same,peripheral blood neutrophils,"C57BL6/J wild type mice; single bolus of Dox, at 7 days, sustained to 14 days",increase
same,neutrophil recruitment to the heart,"C57BL6/J wild type mice; single bolus of Dox, levels maintained to 14 days",reached a peak at 7 days
same,cardiac-resident macrophage number,"C57BL6/J wild type mice; single bolus of Dox, nadir at 7 days",decreased
same,cardiac-resident monocyte number,"C57BL6/J wild type mice; single bolus of Dox, peak at 7 days",increased
same,"heart transcripts of inflammatory mediators Il1b, Il6 and Tnf","[4]; 8 weeks after Dox, mutant Trp53 vs wild-type cells",significant increase
same,fractional shortening and posterior wall thickness of the heart,"[4]; Trp53^+/− vs wild-type group, VAF 0.15, after Dox",significant reductions
same,neutrophil recruitment to the heart,[4]; [8],greater neutrophil recruitment
same,numbers of Ly6C^hi monocytes or macrophages within cardiac tissue,[4]; [8],no effect
same,capillary density in the myocardium,[5]; [9],reduced capillary density
same,fibrosis in the myocardium,[5]; [9],greater fibrosis
same,cardiac contractility (echocardiography),[5]; [10],deterioration
same,ventricular wall (echocardiography),[5]; [10],thinning
same,cardiac contractility (echocardiography),[5]; [11],significant reduction
same,ventricular wall (echocardiography),[5]; [11],wall thinning
same,functional impairment and wall thinning,"[5]; mice with expanding Trp53^+/− clones vs wild-type cells, Dox cycles",significantly greater
"N#Cc1ccc(NC(=O)Nc2ccccc2Br)c2[nH]nnc12 [SB265610, 1-(2-Bromophenyl)-3-(4-cyano-1H-benzo[d] [1,2,3]triazol-7-yl)urea, N-(2-Bromophenyl)-N′-(7-cyano-1H-benzotriazol-4-yl)urea]",neutrophil influx to the hearts,CXCR2,reduced
same,effects of Dox on cardiac wall thinning and function,CXCR2; 14-day timepoint,reversed
